System: auricle of hairless mouse
Assay: Measurement of external blood circulation enhancing action: vasodilatory effect (red spots) after application to the ear
Assay type: in vivo, hairless mouse (HR-1, female)
Parameters: key to Vasodilatory effect for hairless mouse (red spots) / Vasodilatory effect on hairless mouse (red spots): O: clear red spots is confirmed; Δ: weak red spots is confirmed; x: no development of red spots
Conditions: for Vasodilatory effect on hairless mouse (red spots) / red spots observed (note, words) / red spots almost disappeared at / weak red spots were observed at, time after application / red spots were observed at, time after application / red spots at 1 hr after application: 5 wt % (ethanol); for vasodilatory / blood circulation enhancing effect, summary in words: summary of Tables 2 to 4; for red spots at 1 hr after application: 1 hr later
Source text: The compound of each Example, capsinoid derivative and capsaicin were compared for vasodilatory effect using auricle of hairless mouse. A sample was applied to the right ear of hairless mouse (HR-1, female), and a control was applied to the left ear. […]

[1] = 5 wt % (liquid paraffin) as printed, second column of Table 2
[2] = 5 wt % (liquid paraffin), first column of Table 2
[3] = application of 5 wt % in liquid paraffin

| SMILES | Vasodilatory effect on hairless mouse (red spots) | Vasodilatory effect for hairless mouse (red spots) [1] | Vasodilatory effect for hairless mouse (red spots) [2] | red spots disappeared in [3] | vasodilatory / blood circulation enhancing effect, summary in words | other results |
| --- | --- | --- | --- | --- | --- | --- |
| COc1cc(CNC(=O)CCCC/C=C/C(C)C)ccc1O [capsaicin, reference compound] | ∘ | ∘ | ∘ |  |  | Vasodilatory effect for hairless mouse (red spots) (0.005 wt % (ethanol)): Δ; Vasodilatory effect for hairless mouse (red spots) (0.05 wt % (ethanol)): ∘; Vasodilatory effect for hairless mouse (red spots) (0.5 wt % (ethanol)): ∘; red spots observed (note, words): Strong red spots were observed.; red spots were observed even after lapse of (application of 1 wt % in liquid paraffin): lapse of 2 hr |
| COc1cc(COC(=O)CCCC/C=C/C(C)C)ccc1O [capsiate, 4-hydroxy-3-methoxybenzyl (E)-8-methyl-6-nonenoate, reference compound] | ∘ | Δ | ∘ |  |  | red spots observed (note, words): Clear red spots were observed.; weak red spots were observed even after lapse of [3]: lapse of 90 min |
| COc1cc(CCCOC(=O)CCCCCCC(C)C)ccc1O [compound J, 3-(3-methoxy-4-hydroxyphenyl)propyl 8-methylnonanoate] | x |  | x |  |  | blood circulation enhancing effect (note, words) [3]: Application of 5 wt %: no blood |
| COc1cc(CCCOC(=O)CCCCCC(C)C)ccc1O [compound J-1, 3-(3-methoxy-4-hydroxyphenyl)propyl 7-methyloctanoate] | ∘ | x | Δ | spots disappeared in 1 hr | weak blood circulation enhancing effect | red spots almost disappeared at: almost disappeared at 30 min later.; weak red spots were observed at, time after application: Weak red spots were observed at 10 min |
| COc1cc(CCCOC(=O)CCCCC(C)C)ccc1O [compound J-2, 3-(3-methoxy-4-hydroxyphenyl)propyl 6-methylheptanoate] | ∘ | x | Δ | spots disappeared in 1 hr | weak blood circulation enhancing effect | red spots almost disappeared at: almost disappeared at 30 min later.; weak red spots were observed at, time after application: Weak red spots were observed at 10 min |
| COc1cc(CCCOC(=O)CCCC(C)C)ccc1O [compound J-3, 3-(3-methoxy-4-hydroxyphenyl)propyl 5-methylhexanoate] | ∘ | x | Δ | spots disappeared in 1 hr | weak blood circulation enhancing effect | red spots almost disappeared at: almost disappeared at 30 min later.; weak red spots were observed at, time after application: Weak red spots were observed at 10 min |
| COc1cc(CCCOC(=O)CCC(C)C)ccc1O [compound J-4, 3-(3-methoxy-4-hydroxyphenyl)propyl 4-methylpentanoate] | ∘ | x | Δ | spots disappeared in 1 hr | weak blood circulation enhancing effect | red spots almost disappeared at: almost disappeared at 30 min later.; weak red spots were observed at, time after application: Weak red spots were observed at 10 min |
| CCCCCC(=O)OCCCc1ccc(O)c(OC)c1 [compound J-5, 3-(3-methoxy-4-hydroxyphenyl)propyl n-hexanoate] | Δ | x | Δ | spots disappeared in 1 hr | weak blood circulation enhancing effect | red spots almost disappeared at: almost disappeared at 30 min later.; weak red spots were observed at, time after application: Weak red spots were observed at 10 min |
| COc1cc(CC(=O)OCCCCCCCC(C)C)ccc1O [compound K, 8-methylnonyl homovanillate] |  |  | ∘ |  | potent vasodilatory effect | weak red spots were observed even after lapse of [3]: lapse of 2 hr |
| COc1cc(CC(=O)OCCCCCCC(C)C)ccc1O [compound K-1, 7-methyloctyl homovanillate] |  | ∘ | ∘ |  | potent vasodilatory effect | Vasodilatory effect for hairless mouse (red spots) (0.005 wt % (ethanol)): Δ; Vasodilatory effect for hairless mouse (red spots) (0.05 wt % (ethanol)): ∘; Vasodilatory effect for hairless mouse (red spots) (0.5 wt % (ethanol)): ∘; red spots were observed even after lapse of [3]: lapse of 90 min |
| CC[C@H](C)CCCCCOC(=O)Cc1ccc(O)c(OC)c1 [compound K-2, (S)-(+)-6-methyloctyl homovanillate] |  | ∘ | ∘ |  | potent vasodilatory effect | Vasodilatory effect for hairless mouse (red spots) (0.005 wt % (ethanol)): Δ; Vasodilatory effect for hairless mouse (red spots) (0.05 wt % (ethanol)): ∘; Vasodilatory effect for hairless mouse (red spots) (0.5 wt % (ethanol)): ∘; red spots were observed even after lapse of [3]: lapse of 90 min |
| COc1cc(CC(=O)OCCCCCC(C)C)ccc1O [compound K-3, 6-methylheptyl homovanillate] |  | ∘ | ∘ |  | potent vasodilatory effect | Vasodilatory effect for hairless mouse (red spots) (0.005 wt % (ethanol)): Δ; Vasodilatory effect for hairless mouse (red spots) (0.05 wt % (ethanol)): ∘; Vasodilatory effect for hairless mouse (red spots) (0.5 wt % (ethanol)): ∘; red spots were observed even after lapse of [3]: lapse of 90 min |
| COc1cc(CCC(=O)OCCCCCCCC(C)C)ccc1O [compound L, 8-methylnonyl 3-(4-hydroxy-3-methoxyphenyl)propionate] |  |  | ∘ |  | potent vasodilatory effect | red spots were observed even after lapse of [3]: lapse of 90 min |
| COc1cc(CCC(=O)OCCCCCCC(C)C)ccc1O [compound L-1, 7-methyloctyl 3-(4-hydroxy-3-methoxyphenyl)propionate] | ∘ | Δ | ∘ | spots disappeared in 1 hr | potent vasodilatory effect | red spots were observed at, time after application: Red spots were observed at 5 min; red spots at 1 hr after application: thin red spots remained. L-4 showed |
| COc1cc(CCC(=O)OCCCCCC(C)C)ccc1O [compound L-2, 6-methylheptyl 3-(4-hydroxy-3-methoxyphenyl)propionate] | ∘ | Δ | ∘ | spots disappeared in 1 hr | potent vasodilatory effect | red spots were observed at, time after application: Red spots were observed at 5 min; red spots at 1 hr after application: thin red spots remained. L-4 showed |
| COc1cc(CCC(=O)OCCCCC(C)C)ccc1O [compound L-3, 5-methylhexyl 3-(4-hydroxy-3-methoxyphenyl)propionate] | ∘ | Δ | ∘ | spots disappeared in 1 hr | potent vasodilatory effect | red spots were observed at, time after application: Red spots were observed at 5 min; red spots at 1 hr after application: thin red spots remained. L-4 showed |
| CC[C@H](C)CCCCCOC(=O)CCc1ccc(O)c(OC)c1 [compound L-4, (S)-(+)-6-methyloctyl 3-(4-hydroxy-3-methoxyphenyl)propionate] | ∘ | ∘ | ∘ |  | potent vasodilatory effect | red spots were observed at, time after application: Red spots were observed at 5 min; red spots at 1 hr after application: strong red spots after 1 hr.; weak red spots were observed even after lapse of [3]: lapse of 1 hr |
| COc1cc(/C=C/C(=O)OCCCCCCCC(C)C)ccc1O [compound Q-1, 8-methylnonyl ferulate] | x |  | x |  |  | blood circulation enhancing effect (note, words) [3]: Application of 5 wt %: no blood |
| COc1cc(/C=C/C(=O)OCCCCCCC(C)C)ccc1O [compound Q-2, 7-methyloctyl ferulate] | x |  | x |  |  | blood circulation enhancing effect (note, words) [3]: Application of 5 wt %: no blood |
| COc1cc(/C=C/C(=O)OCCCCCC(C)C)ccc1O [compound Q-3, 6-methylheptyl ferulate] | x |  | x |  |  | blood circulation enhancing effect (note, words) [3]: Application of 5 wt %: no blood |
| COc1cc(COC(=O)CCCCCCC(C)C)ccc1O [dihydrocapsiate, 4-hydroxy-3-methoxybenzyl 8-methylnonanoate, reference compound] |  | Δ | ∘ |  |  | weak red spots were observed even after lapse of [3]: lapse of 90 min |
| COc1cc(COC(=O)CCCCCC(C)C)ccc1O [nordihydrocapsiate, 4-hydroxy-3-methoxybenzyl 7-methyl-octanoate, reference compound] |  | Δ | ∘ |  |  | weak red spots were observed even after lapse of [3]: lapse of 90 min |

Source: patent publication US8765809B2, “Ester derivative and use thereof” (Ajinomoto Co., Inc., priority 2006, dated 2014)
